Laboratory results reported in patent US9181309B1, “Peptide regulation of maize defense responses” (The United States of America, as represented by the …, priority 2011, dated 2015).

What was measured:
Cotesia marginiventris = experiment: Olfactometer assay of parasitoid wasp attraction to pretreated leaves; assay type: in vivo; conditions: naive C. marginiventris
Source text: The generalist parasitoid Cotesia marginiventris attacks many Lepidopteran species including S. exigua and is attracted to herbivory-induced maize volatiles (Turlings et al., Science 250:1251, 1990). Precisely which components are attractive has been difficult to determine, and the wasps respond strongly to unidentified minor components when subjected to gas chromatograph-coupled electroantennography (Gouinguene et al., J Chem Ecol. 31:1023, 2005). To determine whether the ZmPep3-induced blend was attractive to naïve C. marginiventris, olfactometer assays were conducted with leaves pretreated with ZmPep3, Gln-18:3 or water for 16 h. To ensure that any preference was due to elicited plant responses and not to an inherent attraction or repellence to any treatment substance, leaves treated at time of assay were used as controls. […] Thus, ZmPep3-regulated responses are sufficient to generate effective indirect defenses against Lepidopteran herbivores.

[1] = test system: defense metabolites in maize leaves; experiment: Accumulation of defense metabolites within treated leaves (internal pools); assay type: in vivo, Zea mays; conditions: following treatment
Source text: Induced terpene production is vital to anti-herbivore defenses in many plant species (Unsicker et al., Curr Opin Plant Biol. 12:479, 2009; Tholl, Curr Opin Plant Biol. 9:297, 2006; Keeling and Bohlmann, New Phytol 170:657, 2006). […] Expression of genes encoding the relevant biosynthetic enzymes, Anthranilic Acid Methyl Transferase 1 (AAMT1) and Indole-Glycerol Phosphate Lyase (IGL) were induced by both peptide and the insect elicitor ([…]., Plant Physiol 153:1795, 2010; Frey et al., Proc Natl Acad Sci USA. 97:14801, 2000). In addition to proteinaceous defenses, maize benzoxazinoids contribute to direct defenses against both herbivores and pathogens ([…] Agric Food Chem 57:1677, 2009). […] Oikawa et al., Phytochemistry. 56:669, 2001; Huffaker et al., Plant Physiol. 155:1325, 2011). […] It is hypothesized that simultaneous activation of both IGL and BX1 by ZmPep3 results in increased flux through the benzoxazinoid pathway to produce HDMBOA-Glc.

[2] = test system: jasmonic acid and ethylene production in maize leaves; experiment: Phytohormone (JA, ET) production in treated leaves; assay type: in vivo, Zea mays; conditions: low equivalent quantities of either elicitor
Source text: A further embodiment is ZmPEP3 regulated production of defense-related metabolites. The elicitor-induced phytohormones JA and ethylene (ET) function as signals integral to initiation of protective responses against pathogens and herbivores (Howe and Jander, Annu Rev Plant Biol. 59:41, 2008).

[3] = test system: herbivore defense genes in maize leaves; experiment: Real time qPCR / qRT-PCR of defense and phytohormone biosynthesis genes in treated leaves
[4] = test system: defense metabolites in maize leaves; conditions: in vivo; cited from earlier work
[5] = test system: Aspergillus niger, Trichoderma viride, Rhizopus sp., Penicillium sp., Aspergillus flavus and Fusarium graminearum; assay type: cell-based, fungi isolated from germinating maize kernels; conditions: for effect on fungal growth: 1 mM in PDA; for growth of fungal pathogens: 10 and 3.3 mM in PDA
[6] = test system: Pseudomonas syringae pv. tomato DC3000 and Xanthomonas campestris pv. vesicatoria; assay type: cell-based

## CC/C=C\C/C=C\C/C=C\CCCCCCCC(=O)N[C@@H](CCC(N)=O)C(=O)O [Gln-18:3, N-Linolenoyl-L-glutamine, reference compound]
Cotesia marginiventris
  wasp preference for leaves pretreated 16 h vs leaves treated at time of assay: did not display a statistically significant preference
[1]
  anthranilate and indole in leaves: increased
[2]
  JA and ET synthesis: elicitation of JA and ET synthesis
[3]; 12 h post-treatment
  BX1 and BX2 expression by qRT-PCR: expressed
[3]; equivalent molar concentrations
  expression of genes encoding Terpene Synthases (TPS) 10 and 23: strongly activate expression
[3]; in vivo
  expression of AAMT1 and IGL genes: induced
[3]; low equivalent quantities of elicitor
  accumulation of transcripts for ACC Oxidase, Allene Oxide Synthase and Allene Oxide Cyclase: significantly increased accumulation of transcripts

## CC/C=C\C[C@H]1C(=O)CC[C@@H]1CC(=O)O [JA, jasmonic acid]
[4]
  HDMBOA-Glc induction (literature): induced

## C=CC(C)(O)CCC=C(C)CCC=C(C)C (centres unmarked) [Nerolidol, nerolidol]
[5]; 10 mM to 0.3 mM
  fungal (microbial) growth at any concentration: did not limit microbial growth
[5]; all concentrations tested
  sporulation of all fungi: strong inhibitor of sporulation
[6]
  bacterial (microbial) growth at any concentration: did not limit microbial growth

## C[C@@H]1[C@H](O)[C@@H](C)/C=C/C=C/C=C/C=C/C=C/C=C/C=C/[C@H](O[C@@H]2O[C@H](C)[C@@H](O)[C@H](N)[C@@H]2O)C[C@@H]2O[C@](O)(C[C@@H](O)C[C@@H](O)[C@H](O)CC[C@@H](O)C[C@@H](O)CC(=O)O[C@H]1C)C[C@H](O)[C@H]2C(=O)O [amphotericin B, reference compound]
[5]; three days after inoculation
  fungal growth on antimycotic-supplemented medium: have not spread from the center well
[6]
  bacterial growth on antimycotic-supplemented medium: proliferated unaffected

## c1ccc2[nH]ccc2c1 [indole]
[5]
  effect on fungal growth: moderate limiting effect
  growth of fungal pathogens: prevented growth
[6]
  bacterial growth at the lowest concentration tested: particularly effective at limiting bacterial growth
  growth of bacterial pathogens: prevented growth

## C=CC(C)(O)CCC=C(C)C (centres unmarked) [linalool]
[5]
  effect on fungal growth: reduced
  growth of fungal pathogens: prevented growth
[6]
  effect on bacterial (microbial) growth: reduced
  growth of bacterial pathogens: prevented growth

## ZmPEP1: previously identified maize plant elicitor peptide VRRRPTTPGRPREGSGGNGGNHH (SEQ ID NO: 1) (Zea mays)
[4]
  HDMBOA-Glc induction (literature): induced

## hexenal
[5]
  effect on fungal growth: reduced
  growth of fungal pathogens: prevented growth
[6]
  effect on bacterial (microbial) growth: reduced
  growth of bacterial pathogens: prevented growth
